Tests used:
Assay type in all cases: in vivo
Septoria nodorum = assay: Test F: wheat glume blotch on wheat seedlings, sprayed the day before inoculation, visual disease rating; details: 100 = 100% disease control
Summary of the method: (§1)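 Compounds were dissolved in acetone (3% of final volume), then suspended in 50/50 acetone/purified water with 250 ppm Trem® 014 surfactant. Suspensions at 200 ppm (some at 40 ppm) were sprayed to run-off, 200 ppm being equivalent to 500 g/ha.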

Septoria tritici = assay: Test G: wheat leaf blotch on wheat seedlings, sprayed the day before inoculation, visual disease rating; details: 100 = 100% disease control
Summary of the method: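 Wheat seedlings were sprayed to run-off with test suspension (acetone/water plus surfactant), generally 200 ppm (≈500 g/ha), or 40 ppm where marked. Septoria tritici spores were inoculated the next day; plants were held 48 h at 24°C in saturated atmosphere, then 19 days at 20°C before visual disease rating.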

Alternaria solani = assay: Test D: tomato early blight, sprayed the day before inoculation, visual disease rating; details: 100 = 100% disease control
Summary of the method: as §1

[1] = system: Puccinia recondita f. sp. tritici; assay: Test I: wheat leaf rust on wheat seedlings, sprayed the day before inoculation, visual disease rating; details: 100 = 100% disease control
Summary of the method: as §1

[2] = system: Erysiphe graminis f. sp. tritici; assay: Test J: wheat powdery mildew on wheat seedlings, sprayed the day before inoculation, visual disease rating; details: 100 = 100% disease control
Summary of the method: as §1

Botrytis cinerea = assay: Test C: tomato Botrytis on tomato seedlings, sprayed the day before inoculation, visual disease rating; details: 100 = 100% disease control
Summary of the method: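 Compounds were dissolved in acetone (3% of final volume), then suspended in 50/50 acetone/purified water containing 250 ppm polyhydric alcohol ester surfactant. Suspensions were sprayed to run-off on tomato seedlings at 200 ppm, equivalent to 500 g/ha, or at 40 ppm where marked.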

Plasmopara viticola = assay: Test A: grape downy mildew, test suspension sprayed after inoculation of grape seedlings, visual disease rating; details: 200 ppm, 100 = 100% disease control
Source text: General protocol for preparing test suspensions for Tests A-J: The test compounds were first dissolved in acetone in an amount equal to 3% of the final volume and then suspended at the desired concentration (in ppm) in acetone and purified water (50/50 mix) containing 250 ppm of the surfactant Trem® 014 (polyhydric alcohol esters). The resulting test suspensions were then used in tests A-J. Spraying a 200 ppm test suspension to the point of run-off on the test plants was the equivalent of a rate of 500 g/ha. […] Grape seedlings were inoculated with a spore suspension of Plasmopara viticola (the causal agent of grape downy mildew) and incubated in a saturated atmosphere at 20° C. for 24 h. After a short drying period, the grape seedlings were sprayed with the test suspension to the point of run-off and then moved to a growth chamber at 20° C. for 5 days, after which time the grape seedlings were placed back into a saturated atmosphere at 20° C. for 24 h. Upon removal, visual disease ratings were made. […] A dash (-) indicates no test results.

Phytophthora infestans = details: 200 ppm; 100 = 100% disease control, 0 = no control relative to controls
Rhizoctonia solani = assay: Test B: turf brown patch on bentgrass seedlings, sprayed the day before inoculation, visual disease rating; details: 200 ppm, 100 = 100% disease control
Source text: General protocol for preparing test suspensions for Tests A-J: The test compounds were first dissolved in acetone in an amount equal to 3% of the final volume and then suspended at the desired concentration (in ppm) in acetone and purified water (50/50 mix) containing 250 ppm of the surfactant Trem® 014 (polyhydric alcohol esters). The resulting test suspensions were then used in tests A-J. Spraying a 200 ppm test suspension to the point of run-off on the test plants was the equivalent of a rate of 500 g/ha. […] The test suspension was sprayed to the point of run-off on bentgrass (Agrostis sp.) seedlings. […] A dash (-) indicates no test results. All results are for 200 ppm except where followed by “*”, which indicates 40 ppm.

[3] = system: Puccinia recondita f. sp. tritici; assay: Test H: wheat leaf rust, test suspension sprayed after inoculation of wheat seedlings, visual disease rating; details: 100 = 100% disease control; for Test H disease control rating: 200 ppm, 0 = no control relative to controls
Summary of the method: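 Wheat seedlings inoculated with P. recondita spores, held 24 h saturated at 20 °C, then 2 days in growth chamber at 20 °C; compound suspension (acetone/water with Trem 014) sprayed to run-off afterwards. Rated visually; 200 ppm (≈500 g/ha) unless marked *, which denotes 40 ppm.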

[4] = 200 ppm, 0 = no control relative to controls
[5] = 0 = no control relative to controls

Compound | Test F disease control rating (Septoria nodorum; [4]) [%] | Test G disease control rating (Septoria tritici; [4]) [%] | Test D disease control rating (Alternaria solani; [4]) [%] | Test I disease control rating [1, 4] [%] | Test J disease control rating [2, 4] [%] | Test C disease control rating (Botrytis cinerea; [4]) [%] | Test A disease control rating (Plasmopara viticola; [5]) [%] | Test E disease control rating (Phytophthora infestans) [%] | Test B disease control rating (Rhizoctonia solani; [5]) [%] | further results
Cc1cc(C)nc(-c2cnnn2-c2cc(Cl)cc(Cl)c2)n1 [compound 644] | 0 | 0 | 0 | 0 | 0 | 94 | 0 | 0 | – | –
COc1cc(F)c(-c2c(-c3ccc(Cl)cc3)c(OC)nn2C)c(F)c1 [compound 578] | 0 | 100 | 37 | 74 | 98 | 98 | 0 | 0 | 58 | –
Cc1ccc(-n2cnc(Cl)c2-c2c(F)cccc2Cl)cc1 [compound 181] | – | – | – | – | – | – | – | – | – | Test F disease control rating (Septoria nodorum; 200 ppm, 0 = no control): 0%; Test G disease control rating (Septoria tritici; 200 ppm, 0 = no control): 94%; Test D disease control rating (Alternaria solani; 200 ppm, 0 = no control): 0%; Test I disease control rating ([1]; 200 ppm, 0 = no control): 98%; Test B disease control rating (Rhizoctonia solani; 0 = no control): 24%; Test J disease control rating ([2]; 200 ppm, 0 = no control): 99%; Test C disease control rating (Botrytis cinerea; 200 ppm, 0 = no control): 99%
Fc1ccc(-n2cnc(Cl)c2-c2ccc(F)cc2Cl)cc1 [compound 178] | – | – | – | – | – | – | – | – | – | Test F disease control rating (Septoria nodorum; 200 ppm, 0 = no control): 0%; Test G disease control rating (Septoria tritici; 200 ppm, 0 = no control): 100%; Test D disease control rating (Alternaria solani; 200 ppm, 0 = no control): 99%; Test I disease control rating ([1]; 200 ppm, 0 = no control): 74%; Test B disease control rating (Rhizoctonia solani; 0 = no control): 0%; Test J disease control rating ([2]; 200 ppm, 0 = no control): 100%; Test C disease control rating (Botrytis cinerea; 200 ppm, 0 = no control): 99%; Test A disease control rating (Plasmopara viticola; 0 = no control): 9%
Cc1nc(Cl)c(-c2ccc(F)cc2)n1-c1ccc(Cl)cc1 [Compound 5, 4-chloro-1-(4-chlorophenyl)-5-(4-fluorophenyl)-2-methyl-1H-imidazole] | – | – | – | – | – | – | 0 | 0 | 38 | pest or weed control at 200 ppm (Septoria nodorum; Parastagonospora nodorum, 264 h, 200 ppm, 0 = no control relative to controls): 0%; pest or weed control at 200 ppm (Septoria tritici; Zymoseptoria tritici, 504 h, 200 ppm, 0 = no control relative to controls): 100%; pest or weed control at 200 ppm (Alternaria solani; Alternaria solani, 168 h, 200 ppm, 0 = no control relative to controls): 99%; pest or weed control at 200 ppm ([1]; Puccinia recondita, 168 h, 200 ppm, 0 = no control relative to controls): 88%; pest or weed control at 200 ppm ([2]; Blumeria graminis, 168 h, 200 ppm, 0 = no control relative to controls): 99%; pest or weed control at 200 ppm (Botrytis cinerea; Botrytis cinerea, 120 h, 200 ppm, 0 = no control relative to controls): 98%
Cc1nn(C)c(-c2ccc(Cl)c(F)c2)c1-c1c(F)cccc1F [compound 67] | 0 | 80 | 99 | 0 | 99 | 44 | 7 | 0 | 98 | –
Cc1nn(C)c(-c2ccc(Cl)c(F)c2)c1-c1c(F)cc(F)cc1F [compound 104] | 0 | 32 | 98 | 0 | 95 | 92 | – | 0 | 0 | –
Fc1ccc(-n2cnc(Cl)c2-c2c(F)cccc2Cl)cc1 [compound 180] | – | – | – | – | – | – | – | – | – | Test F disease control rating (Septoria nodorum; 200 ppm, 0 = no control): 0%; Test G disease control rating (Septoria tritici; 200 ppm, 0 = no control): 98%; Test D disease control rating (Alternaria solani; 200 ppm, 0 = no control): 99%; Test I disease control rating ([1]; 200 ppm, 0 = no control): 99%; Test B disease control rating (Rhizoctonia solani; 0 = no control): 88%; Test J disease control rating ([2]; 200 ppm, 0 = no control): 100%; Test C disease control rating (Botrytis cinerea; 200 ppm, 0 = no control): 99%; Test A disease control rating (Plasmopara viticola; 0 = no control): 0%
COc1cc(F)c(-c2c(C)nn(C)c2-c2ccc(Cl)c(F)c2)c(F)c1 [compound 115] | 98 | 99 | 99 | 98 | 100 | 99 | – | 0 | 99 | –
COc1cc(F)c(-c2c(C)nn(C)c2-c2ccc(Cl)c(OC)c2)c(F)c1 [compound 111] | 100 | 100 | 99 | 89 | 99 | 99 | – | 0 | 81 | –
COc1cc(F)c(-n2cnc(C)c2-c2ccc(Cl)nc2)c(F)c1 [Compound 685, 2-chloro-5-[1-(2,6-difluoro-4-methoxyphenyl)-4-methyl-1H-imidazol-5-yl]pyridine] | – | – | – | – | – | – | – | – | – | pest or weed control at 40 ppm (Septoria nodorum; Parastagonospora nodorum, 264 h, 40 ppm (marked *)): 0%; pest or weed control at 40 ppm (Septoria tritici; Zymoseptoria tritici, 504 h, 40 ppm (marked *)): 87%; pest or weed control at 40 ppm (Alternaria solani; Alternaria solani, 168 h, 40 ppm (marked *)): 99%; pest or weed control at 40 ppm ([3]; Puccinia recondita, 96 h, 40 ppm (marked *)): 0%; pest or weed control at 40 ppm ([1]; Puccinia recondita, 168 h, 40 ppm (marked *)): 68%; pest or weed control at 40 ppm ([2]; Blumeria graminis, 168 h, 40 ppm (marked *)): 64%; pest or weed control at 40 ppm (Botrytis cinerea; Botrytis cinerea, 120 h, 40 ppm (marked *)): 100%
Fc1ccc(F)c(-c2c(Br)ncn2-c2ccc(Cl)cc2)c1F [compound 330] | 0 | 96 | 100 | 98 | 99 | 100 | – | – | – | Test H disease control rating [3]: 9%
COc1ccc(Cl)c(-c2c(Cl)nc(C)n2-c2ccc(Cl)cc2)c1F [compound 550] | 100 | 97 | 100 | 99 | 100 | 100 | – | – | – | Test H disease control rating [3]: 0%

Reference: patent US20110045101A1, “FUNGICIDAL SUBSTITUTED AZOLES” (E.I. Du Pont De Nemours and Company, priority 2009, published 2011)
